Among the data in PubChem BioAssay AID330 (DTP/NCI, 2004) are T/C values, retold here.

Molecules are shown by their SMILES. Where “and” joins values, the source holds several entries; their conditions need not be identical. Equal values may be shown once. Inconclusive results and toxic doses are left out.

This test deals with P388 leukemia ip, CD2F1 mice, survival T/C. The test can be described thus: NCI In Vivo Anticancer Drug Screen. Data for tumor model P388 Leukemia (intraperitoneal) in CD2F1 (CDF1) mice. As to conditions: endpoint: median survival time, higher = longer survival. Put shortly: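 Mice carrying the transplanted tumor received test compound or vehicle. Survival was recorded in each group, and the value is the treated-group measurement divided by that of the vehicle-treated control group.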

[1] abbreviates: dose: 50.0 mg/kg/injection, schedule: Q01DX009 (ip), vehicle: suspension in saline.
[2] abbreviates: dose: 50.0 mg/kg/injection, schedule: Q01DX005 (ip), vehicle: Klucel (hydroxypropylcellulose) (HPC).
Setting [3] is: dose: 100.0 mg/kg/injection, schedule: Q01DX005 (ip), vehicle: Klucel (hydroxypropylcellulose) (HPC).
Setting [4] is: dose: 200.0 mg/kg/injection, schedule: Q01DX005 (ip), vehicle: Klucel (hydroxypropylcellulose) (HPC).
The mark [5] stands for this setting: dose: 50.0 mg/kg/injection, schedule: Q01DX009 (ip), vehicle: saline with Tween-80.
Setting [6] is: dose: 100.0 mg/kg/injection, schedule: Q01DX009 (ip), vehicle: saline with Tween-80.
Setting [7] is: dose: 200.0 mg/kg/injection, schedule: Q01DX009 (ip), vehicle: saline with Tween-80.
Setting [8] is: dose: 60.0 mg/kg/injection, schedule: Q01DX005 (ip), vehicle: saline with Tween-80.
Setting [9] is: dose: 120.0 mg/kg/injection, schedule: Q01DX005 (ip), vehicle: saline with Tween-80.
Setting [10] is: dose: 240.0 mg/kg/injection, schedule: Q01DX005 (ip), vehicle: saline with Tween-80.

As for `Cc1cccc(Cl)c1NC(=O)C(C)C`, the T/C (dose: 100.0 mg/kg/injection, schedule: Q04DX003 (ip), vehicle: other) is 104 % of control; the T/C (dose: 200.0 mg/kg/injection, schedule: Q04DX003 (ip), vehicle: other) was 109 % of control; the T/C (dose: 400.0 mg/kg/injection, schedule: Q04DX003 (ip), vehicle: other) was 90 % of control.
Turning to `FC(F)(F)c1nc2nccnc2[nH]1`, the T/C runs as follows: (dose: 50.0 mg/kg/injection, schedule: Q04DX003 (ip), vehicle: saline) 100 % of control; (dose: 100.0 mg/kg/injection, schedule: Q04DX003 (ip), vehicle: saline) 100 % of control; (dose: 200.0 mg/kg/injection, schedule: Q04DX003 (ip), vehicle: saline) 100 % of control.
With `S=c1nc[nH][nH]1`, the T/C by setting is: under setting [1], 99 % of control; (dose: 100.0 mg/kg/injection, schedule: Q01DX009 (ip), vehicle: suspension in saline) 105 % of control; (dose: 200.0 mg/kg/injection, schedule: Q01DX009 (ip), vehicle: suspension in saline) 106 % of control.
In the case of `COC(=O)C1=C(C(=O)OC)CCC1`, the T/C was 97 % of control (dose: 25.0 mg/kg/injection, schedule: Q01DX009 (ip), vehicle: distilled water + Tween-80); 91 % of control (dose: 50.0 mg/kg/injection, schedule: Q01DX009 (ip), vehicle: distilled water + Tween-80); 100 % of control (dose: 100.0 mg/kg/injection, schedule: Q01DX009 (ip), vehicle: distilled water + Tween-80); 105 % of control (dose: 200.0 mg/kg/injection, schedule: Q01DX009 (ip), vehicle: distilled water + Tween-80); 100 % of control (dose: 400.0 mg/kg/injection, schedule: Q01DX009 (ip), vehicle: distilled water + Tween-80).
In the case of `N#CC(C(N)=O)C(CC(=O)c1ccccc1)c1ccccc1` (stereo not drawn), the T/C under setting [2] was 100 % of control, the T/C under setting [3] was 102 % of control and the T/C under setting [4] is 101 % of control.
For `CCOC(=O)CNC(=O)C(CSSCC(NC(=O)OCc1ccccc1)C(=O)OC)NC(=O)C(NC(=O)OCc1ccccc1)C(C)C` (stereo not drawn), the T/C by setting is: under setting [2], 100 % of control; under setting [3], 98 % of control; under setting [4], 95 % of control.
Take `ClCSc1nc2cc(Cl)ccc2s1`: the T/C is 95 % of control under setting [5], 100 % of control under setting [6] and 95 % of control under setting [7].
Turning to `Cc1c(N(C)C)nc2cc(N(C)C)ccc2c1Cl`, the T/C is, setting by setting: under setting [5], 91 % of control; under setting [6], 92 % of control; under setting [7], 91 % of control.
As for `CNC1C(O)C(OC2C(N)CC(N)C(OC3OC(C(C)O)C(O)C(O)C3N)C2O)OCC1(C)O` (stereo not drawn), the T/C is, setting by setting: (dose: 7.5 mg/kg/injection, schedule: Q01DX005 (ip), vehicle: saline) 108 % of control; (dose: 15.0 mg/kg/injection, schedule: Q01DX005 (ip), vehicle: saline) 107 % of control; (dose: 30.0 mg/kg/injection, schedule: Q01DX005 (ip), vehicle: saline) 101 % of control.
Regarding `COc1cc(C(=O)N2C3C4CCC(C)(OC4(C)C)C32)cc(OC)c1OC` (stereo not drawn), the T/C by setting is: under setting [2], 95 % of control; under setting [3], 97 % of control; under setting [4], 94 % of control.
As to `CCc1ccc2c(c1)C(O)(C#Cc1ccccc1)c1cc(CC)ccc1C2(O)C#Cc1ccccc1` (stereo not drawn), the T/C was 93 % of control (dose: 100.0 mg/kg/injection, schedule: Q04DX002 (ip), vehicle: saline with Tween-80); 93 % of control (dose: 200.0 mg/kg/injection, schedule: Q04DX002 (ip), vehicle: saline with Tween-80); 93 % of control (dose: 400.0 mg/kg/injection, schedule: Q04DX002 (ip), vehicle: saline with Tween-80).
`CCOC(=O)Nc1cc2c(c(N)n1)N=C(c1ccccc1)CN2C`: the T/C by setting is: (dose: 12.5 mg/kg/injection, schedule: Q01DX001 (ip), vehicle: saline with Tween-80) 111 % of control; (dose: 25.0 mg/kg/injection, schedule: Q01DX001 (ip), vehicle: saline with Tween-80) 101 % of control; (dose: 50.0 mg/kg/injection, schedule: Q01DX001 (ip), vehicle: saline with Tween-80) 111 % of control and 97 % of control; (dose: 100.0 mg/kg/injection, schedule: Q01DX001 (ip), vehicle: saline with Tween-80) 112 % of control; (dose: 200.0 mg/kg/injection, schedule: Q01DX001 (ip), vehicle: saline with Tween-80) 106 % of control.
For `O=C(CC(=NCC(O)CN=C(CC(=O)c1ccccc1)c1ccccc1)c1ccccc1)c1ccccc1.[Ni]` (stereo not drawn), the T/C by setting is: (dose: 25.0 mg/kg/injection, schedule: Q04DX003 (ip), vehicle: saline with Tween-80) 94 % of control; (dose: 50.0 mg/kg/injection, schedule: Q04DX003 (ip), vehicle: saline with Tween-80) 94 % of control; (dose: 100.0 mg/kg/injection, schedule: Q04DX003 (ip), vehicle: saline with Tween-80) 87 % of control; (dose: 200.0 mg/kg/injection, schedule: Q04DX003 (ip), vehicle: saline with Tween-80) 86 % of control.
In the case of `CSc1ccc2c(NCCCCCCCCNc3c4ccccc4nc4cc(SC)ccc34)c3ccccc3nc2c1`, the T/C is, setting by setting: (dose: 0.63 mg/kg/injection, schedule: Q01DX009 (ip), vehicle: other) 117 % of control; (dose: 1.25 mg/kg/injection, schedule: Q01DX009 (ip), vehicle: other) 119 % of control; (dose: 2.5 mg/kg/injection, schedule: Q01DX009 (ip), vehicle: other) 123 % of control; (dose: 10.0 mg/kg/injection, schedule: Q01DX009 (ip), vehicle: other) 122 % of control.
As for `COc1ccc(C2=CC(=O)N(C(C)C)C2=O)cc1`, the T/C is, setting by setting: (dose: 12.5 mg/kg/injection, schedule: Q01DX009 (ip), vehicle: saline with Tween-80) 107 % of control; (dose: 25.0 mg/kg/injection, schedule: Q01DX009 (ip), vehicle: saline with Tween-80) 116 % of control; under setting [5], 107 % of control; under setting [6], 108 % of control; under setting [7], 109 % of control.
In the case of `COc1ccc2ccc3cccnc3c2n1`, the T/C was 93 % of control under setting [8], 99 % of control under setting [9] and 105 % of control under setting [10].
As for `CCCCCCCCCc1cc(CN2CCCCC2)c(O)c(CN2CCCCC2)c1`, the T/C was 112 % of control (dose: 12.5 mg/kg/injection, schedule: Q01DX009 (ip), vehicle: saline); 108 % of control (dose: 25.0 mg/kg/injection, schedule: Q01DX009 (ip), vehicle: saline); 102 % of control (dose: 50.0 mg/kg/injection, schedule: Q01DX009 (ip), vehicle: saline).
With `Cc1ccc(C)c(NC(=O)C#N)c1`, the T/C under setting [8] is 93 % of control.
Take `Cc1ccc(S(=O)(=O)NC(=O)O/N=C/c2ccc3c(c2)OCO3)cc1`: the T/C was 100 % of control under setting [5], 97 % of control under setting [6] and 100 % of control under setting [7].
As to `C[C@]12C=CC(=O)C=C1CC[C@@H]1[C@@H]2[C@@H](O)C[C@@]2(C)[C@H]1CC[C@]2(O)C(=O)CF`, the T/C was 100 % of control (dose: 6.25 mg/kg/injection, schedule: Q01DX009 (ip), vehicle: suspension in saline); 93 % of control (dose: 12.5 mg/kg/injection, schedule: Q01DX009 (ip), vehicle: suspension in saline); 102 % of control (dose: 25.0 mg/kg/injection, schedule: Q01DX009 (ip), vehicle: suspension in saline); 96 % of control under setting [1].
Regarding `COC(=O)C(C)N(CCCl)P1(=O)OCCCN1CCCl` (stereo not drawn), the T/C is, setting by setting: under setting [8], 108 % of control; (dose: 60.0 mg/kg/injection, schedule: Q01DX005 (ip), vehicle: saline) 99 % of control; under setting [9], 124 % of control; under setting [10], 165 % of control; (dose: 240.0 mg/kg/injection, schedule: Q01DX005 (ip), vehicle: saline) 297 % of control; (dose: 400.0 mg/kg/injection, schedule: Q01DX005 (ip), vehicle: saline with Tween-80) 252 % of control.
Consider `Cc1c2cc[n+](C)cc2c(COC2OC(CO)C(O)C2O)c2c3ccccc3n(C)c12` (stereo not drawn), for which, where the note is “dose: 60.0 mg/kg/injection, schedule: Q01DX005 (ip), vehicle: Klucel (hydroxypropylcellulose) (HPC)”, the T/C was 123 % of control.
As to `NC(CCN[N+](=O)[O-])C(=O)O` (stereo not drawn), the T/C was 103 % of control (dose: 25.0 mg/kg/injection, schedule: Q01DX005 (ip), vehicle: Klucel (hydroxypropylcellulose) (HPC)); 97 % of control under setting [2]; 96 % of control under setting [3]; 97 % of control under setting [4].
